Reference: PMC5319852 (Biochemistry, 2016)

Biological target: Plasmodium vivax geranylgeranyl diphosphate synthase (PvGGPPS) (Plasmodium vivax, UniProt A5K4U6)
Test: X-ray co-crystal structure
Assay type: biochemical

Structure (SMILES): CCCCCCCCCCOc1cccc(COc2ccc([N+](=O)[O-])cc2C(=O)O)c1 [BPH-1186]
- IC50: 50 µM
